Holding throughout (type): cell-based
One assay deals with HIV-1 HBX2 (wild type). Description: High throughput cytopathic effect assay in MT-4 cells, wild type HIV-1. The source says:
(§1) Compounds were screened in a miniaturized, high throughput cytopathic effect assay for activity against HIV-1 HBX2 (wild type) and HIV-1 reverse transcriptase mutants K103N and Y181C. In Tables 1 and 2 below. “w.t.” refers to results of the tested compounds run with the wildtype 1 and “w.t, assay 2” refers results of the tested compounds run with the wildtype on the same day as the testing of the compounds with the mutants. Thus, “w.t, assay 2” was run under the same conditions as the testing of the compounds with the mutants and provides a direct comparison with the results from the testing with the mutants.
(§2) Ten-point serial dilutions of compounds with half-log step size were generated in DMSO. AZT ([…]) was used as the positive control and DMSO as the negative control. The Echo acoustic dispenser was used to deliver 200 nL of serially diluted compound into sterile 384 well tissue culture assay plates. Two million MT-4 cells were incubated with each of the 3 viruses at MOI of 0.0005 in separate 1 mL infection tubes for 1 hour at 37° C. The cells were diluted in cell culture medium (RPMI+10% FBS) to 50.000 cells/mL. The infected cells were added to 384 well assay plates containing serially dilute compounds. Assay plates were incubated for 5 days in a humidified incubator set at 37° C. and 5% CO2. To measure the cytopathic effect of HIV, 40 μL Cell TiterGlo was added to each well and the resulting luminescence signal is read with the Envision plate reader (Perkin Elmer). Data were normalized to positive and negative controls in each plate and expressed as % CPE Protection. EC50 values were defined as the compound concentration that caused a 50% decrease in luminescence signal, and were calculated by non-linear regression using Pipeline Pilot software by applying a four parameter fit equation (Accelrys, San Diego, Calif.).

Assay [1] concerns HIV-1 reverse transcriptase mutant K103N. The experiment in a line: High throughput cytopathic effect assay in MT-4 cells, K103N mutant. The settings on record: for EC50: Human immunodeficiency virus 1, MT4, 120 h, read-out: MT4 EC50 (nM) against K103N; for FC against mutant K103N: fold change of MT4 EC50 versus w.t. assay 2.
From the text: as §1, §2
For orientation: Protection from cytopathic effect is a common read-out in antiviral testing.

The test system of assay [2] is HIV-1 reverse transcriptase mutant Y181C. The experiment in a line: High throughput cytopathic effect assay in MT-4 cells, Y181C mutant. To be noted: for EC50: Human immunodeficiency virus 1, MT4, 120 h, read-out: MT4 EC50 (nM) against Y181C; for FC against mutant Y181C: fold change of MT4 EC50 versus w.t. assay 2.
From the text: as §1, §2

[3] abbreviates: Human immunodeficiency virus 1, MT4, 120 h, MT-4 cells, 5 days, cytopathic effect, Cell TiterGlo, read-out: MT4 EC50 (nM) against w.t.
Setting [4] is: Human immunodeficiency virus 1, MT4, read-out: MT4 EC50 (nM) against w.t. assay 2.

Where two headings read alike, the source gives them in different places.

With `CC(C#N)=Cc1cc(C)c(-c2cccc3c(N)nc(Nc4ccc(C#N)cc4)nc23)c(C)c1` (racemic) [Compound 40, 4-((4-Amino-8-(4-(2-cyanoprop-1-en-1-yl)-2,6-dimethylphenyl)quinazolin-2-yl)amino)benzonitrile], the half-maximal effective concentration (EC50) (as a rule, the concentration that produces a half-maximal response) in the assay on HIV-1 HBX2 (wild type) (setting [3]) stood at 6.8 nM; in the assay on HIV-1 HBX2 (wild type) (setting [4]), 9.9 nM; in assay [1] it was 16.3 nM; in assay [2], 36.1 nM. In assay [1], the “FC against mutant K103N” value is 1.7. For the same compound, in assay [2], the “FC against mutant Y181C” value was found to be 3.7.

As for `Cc1cc(/C=C/C#N)cc(C)c1-c1cccc2c(NCC3CC3)nc(Nc3ccc(C#N)cc3)nc12` [Compound 6, (E)-4-((8-(4-(2-Cyanovinyl)-2,6-dimethylphenyl)-4-((cyclopropylmethyl)amino)quinazolin-2-yl)amino)benzonitrile], the EC50 in the assay with HIV-1 HBX2 (wild type) (setting [3]) was found to be 99.3 nM; in the assay on HIV-1 HBX2 (wild type) (setting [4]), 82.6 nM; in assay [1], 81.1 nM; in assay [2], 470 nM. Further, the “FC against mutant K103N” value in assay [1] is recorded as 1.0. Moreover, the “FC against mutant Y181C” value in assay [2] is listed as 5.7.

`CCCCNc1nc(Nc2ccc(C#N)cc2)nc2c(-c3c(C)cc(/C=C/C#N)cc3C)cccc12` [Compound 7, (E)-4-((4-(Butylamino)-8-(4-(2-cyanovinyl)-2,6-dimethylphenyl)quinazolin-2-yl)amino)benzonitrile]: the EC50 in the assay on HIV-1 HBX2 (wild type) (setting [3]) was 122 nM; in the assay on HIV-1 HBX2 (wild type) (setting [4]), 117 nM; in assay [1], 130 nM; in assay [2], > 500 nM. Also, the “FC against mutant K103N” value in assay [1] is 1.1. Also, the “FC against mutant Y181C” value in assay [2] is listed as >4.3.

For the compound `N#C/C=C/c1cc(F)c(-c2cccc3c(N)nc(Nc4ccc(C#N)cc4)nc23)c(F)c1` [Compound 8, (E)-4-((4-Amino-8-(4-(2-cyanovinyl)-2,6-difluorophenyl)quinazolin-2-yl)amino)benzonitrile], the EC50 was determined as 2.7 nM in the assay with HIV-1 HBX2 (wild type) (setting [3]), 2.8 nM with HIV-1 HBX2 (wild type) (setting [4]), 3.7 nM in assay [1] and 21.7 nM in assay [2]. Moreover, in assay [1], the “FC against mutant K103N” value was found to be 1.3. Moreover, the “FC against mutant Y181C” value in assay [2] came out at 7.8.

As to `Cc1cc(/C=C/C#N)cc(C)c1-c1cc(F)cc2cnc(Nc3ccc(C#N)cn3)nc12` [Compound 14, (E)-6-((8-(4-(2-Cyanovinyl)-2,6-dimethylphenyl)-6-fluoroquinazolin-2-yl)amino)nicotinonitrile], the EC50 in the assay on HIV-1 HBX2 (wild type) (setting [3]) came out at 8.1 nM; with HIV-1 HBX2 (wild type) (setting [4]) it was 12.7 nM; in assay [1] it was 15.1 nM; in assay [2], 122 nM. In assay [1], the “FC against mutant K103N” value is given as 1.2. Further, the “FC against mutant Y181C” value in assay [2] is 9.6.

For `Cc1cc(Nc2nc(N)c3cccc(-c4c(C)cc(/C=C/C#N)cc4C)c3n2)nc(C)c1C#N` [Compound 15, (E)-6-((4-Amino-8-(4-(2-cyanovinyl)-2,6-dimethylphenyl)quinazolin-2-yl)amino)-2,4-dimethylnicotinonitrile], the EC50 in the assay on HIV-1 HBX2 (wild type) (setting [3]) came to 22.6 nM; with HIV-1 HBX2 (wild type) (setting [4]), 33.2 nM; in assay [1], 72.2 nM; in assay [2], 180 nM. Moreover, the “FC against mutant K103N” value in assay [1] is recorded as 2.2. Also, the “FC against mutant Y181C” value in assay [2] is recorded as 5.4.

With `Cc1cc(/C=C/C#N)cc(C)c1-c1cccc2c(N)nc(Nc3ccc(C#N)c(C)n3)nc12` [Compound 16, (E)-6-((4-Amino-8-(4-(2-cyanovinyl)-2,6-dimethylphenyl)quinazolin-2-yl)amino)-2-methylnicotinonitrile], the EC50 was found to be 6.3 nM in the assay with HIV-1 HBX2 (wild type) (setting [3]), 7.5 nM with HIV-1 HBX2 (wild type) (setting [4]), 12.5 nM in assay [1] and 42.6 nM in assay [2]. The “FC against mutant K103N” value in assay [1] was determined as 1.7. The “FC against mutant Y181C” value in assay [2] is 5.7.

Regarding `Cc1cc(C#N)cnc1Nc1nc(N)c2cccc(-c3c(C)cc(/C=C/C#N)cc3C)c2n1` [Compound 17, (E)-6-((4-Amino-8-(4-(2-cyanovinyl)-2,6-dimethylphenyl)quinazolin-2-yl)amino)-5-methylnicotinonitrile], the EC50 in the assay on HIV-1 HBX2 (wild type) (setting [3]) was 229 nM; in the assay on HIV-1 HBX2 (wild type) (setting [4]), 190 nM; in assay [1] it was 151 nM; in assay [2], > 500 nM. Also, the “FC against mutant K103N” value in assay [1] was 0.8. For the same compound, the “FC against mutant Y181C” value in assay [2] was >2.6.

In the case of `Cc1cc(Nc2nc(N)c3cccc(-c4c(C)cc(/C=C/C#N)cc4C)c3n2)ncc1C#N` [Compound 18, (E)-6-((4-Amino-8-(4-(2-cyanovinyl)-2,6-dimethylphenyl)quinazolin-2-yl)amino)-4-methylnicotinonitrile], the EC50 is 21.9 nM with HIV-1 HBX2 (wild type) (setting [3]), 13.1 nM with HIV-1 HBX2 (wild type) (setting [4]), 12.1 nM in assay [1] and 112 nM in assay [2]. Further, the “FC against mutant K103N” value in assay [1] came to 0.9. The “FC against mutant Y181C” value in assay [2] turned out to be 8.6.

Regarding `Cc1cc(/C=C/C#N)cc(C)c1-c1cc(Cl)cc2c(N)nc(Nc3ccc(C#N)cc3)nc12` [Compound 19, (E)-4-((4-Amino-6-chloro-8-(4-(2-cyanovinyl)-2,6-dimethylphenyl)quinazolin-2-yl)amino)benzonitrile], the EC50 in the assay with HIV-1 HBX2 (wild type) (setting [3]) was 27.5 nM; in the assay on HIV-1 HBX2 (wild type) (setting [4]), 29 nM; in assay [1], 30.3 nM; in assay [2], 79.7 nM. Also, the “FC against mutant K103N” value in assay [1] came to 1.0. The “FC against mutant Y181C” value in assay [2] is recorded as 2.7.

As to `Cc1cc(/C=C/C#N)cc(C)c1-c1cc(F)cc2c(N)nc(Nc3ccc(C#N)cn3)nc12` [Compound 20, (E)-6-((4-Amino-8-(4-(2-cyanovinyl)-2,6-dimethylphenyl)-6-fluoroquinazolin-2-yl)amino)nicotinonitrile], the EC50 in the assay with HIV-1 HBX2 (wild type) (setting [3]) is 7 nM; in the assay on HIV-1 HBX2 (wild type) (setting [4]) it was 6.6 nM; in assay [1] it was 7.1 nM; in assay [2], 69.9 nM. In addition, the “FC against mutant K103N” value in assay [1] is 1.1. In addition, the “FC against mutant Y181C” value in assay [2] came out at 10.5.

`Cc1cc(-c2c(C)cc(/C=C/C#N)cc2C)c2nc(Nc3ccc(C#N)cn3)nc(N)c2c1` [Compound 21, (E)-6-((4-Amino-8-(4-(2-cyanovinyl)-2,6-dimethylphenyl)-6-methylquinazolin-2-yl)amino)nicotinonitrile]: the concentration for a half-maximal effect (EC50) in the assay on HIV-1 HBX2 (wild type) (setting [3]) came to 10.1 nM; with HIV-1 HBX2 (wild type) (setting [4]), 10.6 nM; in assay [1], 10.8 nM; in assay [2] it was 187 nM. Also, the “FC against mutant K103N” value in assay [1] is 1.0. The “FC against mutant Y181C” value in assay [2] amounted to 17.6.

For the compound `Cc1cc(/C=C/C#N)cc(C)c1-c1cc([N+](=O)[O-])cc2c(N)nc(Nc3ccc(C#N)cn3)nc12` [Compound 22, (E)-6-((4-Amino-8-(4-(2-cyanovinyl)-2,6-dimethylphenyl)-6-nitroquinazolin-2-yl)amino)nicotinonitrile], the EC50 with HIV-1 HBX2 (wild type) (setting [3]) was 69.3 nM; with HIV-1 HBX2 (wild type) (setting [4]) it was 87.5 nM; in assay [1], 101 nM; in assay [2] it was > 500 nM. In assay [1], the “FC against mutant K103N” value is given as 1.2. In addition, the “FC against mutant Y181C” value in assay [2] is listed as >5.7.

Take `Cc1cc(/C=C/C#N)cc(C)c1-c1cc(N)cc2c(N)nc(Nc3ccc(C#N)cn3)nc12` [Compound 23, (E)-6-((4,6-Diamino-8-(4-(2-cyanovinyl)-2,6-dimethylphenyl)quinazolin-2-yl)amino)nicotinonitrile]: the EC50 with HIV-1 HBX2 (wild type) (setting [3]) came to 8.7 nM.

Regarding `COc1cc(-c2c(C)cc(/C=C/C#N)cc2C)c2nc(Nc3ccc(C#N)cn3)nc(N)c2c1` [Compound 24, (E)-6-((4-Amino-8-(4-(2-cyanovinyl)-2,6-dimethylphenyl)-6-methoxyquinazolin-2-yl)amino)nicotinonitrile], the concentration for a half-maximal effect (EC50) was determined as 27.8 nM in the assay on HIV-1 HBX2 (wild type) (Human immunodeficiency virus 1, MT4, 120 h, read-out: MT4 EC50 (nM) against w.t.); 27.8 nM in the assay with HIV-1 HBX2 (wild type) (setting [4]); 32.5 nM in assay [1]; 478 nM in assay [2]. In addition, in assay [1], the “FC against mutant K103N” value amounted to 1.2. Besides, the “FC against mutant Y181C” value in assay [2] amounted to 17.2.

`Cc1cc(/C=C/C#N)cc(C)c1-c1cc(Br)cc2c(N)nc(Nc3ccc(C#N)cc3)nc12` [Compound 25, (E)-4-((4-Amino-6-bromo-8-(4-(2-cyanovinyl)-2,6-dimethylphenyl)quinazolin-2-yl)amino)benzonitrile]: the EC50 with HIV-1 HBX2 (wild type) (setting [3]) is 39.1 nM; in the assay with HIV-1 HBX2 (wild type) (setting [4]), 28.3 nM; in assay [1], 44.1 nM; in assay [2] it was 160 nM. The “FC against mutant K103N” value in assay [1] is recorded as 1.6. The “FC against mutant Y181C” value in assay [2] stood at 5.6.

On to `Cc1cc(/C=C/C#N)cc(C)c1-c1cc(F)cc2c(N)nc(Nc3cnc(C#N)cn3)nc12` [Compound 26, (E)-5-((4-Amino-8-(4-(2-cyanovinyl)-2,6-dimethylphenyl)-6-fluoroquinazolin-2-yl)amino)pyrazine-2-carbonitrile], for which the EC50 with HIV-1 HBX2 (wild type) (setting [3]) was 2.7 nM; in the assay on HIV-1 HBX2 (wild type) (setting [4]), 2 nM; in assay [1], 2.4 nM; in assay [2], 27.2 nM. The “FC against mutant K103N” value in assay [1] is reported as 1.2. In addition, the “FC against mutant Y181C” value in assay [2] is 13.5.

For the origin of these results see patent US10548898B2, “Quinazoline compounds” (Gilead Sciences, Inc., priority 2014, dated 2020).
